Test results: article PMC12217481, “Structure and mechanism of taniborbactam inhibition of the cefepime-hydrolyzing, partial R2-loop deletion Pseudomonas-derived cephalosporinase variant PDC-88” (Antimicrobial Agents and Chemotherapy, 2025)
In brackets after ≈: the same amount, converted by molar mass. Read-outs that look alike come from different tables or passages of the source.

Key:
[1] = tested on: E. coli DH10B/pTU606 (PDC-1); assay: Broth microdilution MIC, isogenic E. coli expressing PDC-1; assay type: cell-based; settings: Escherichia coli
Protocol: (§1) Genetic constructs used for minimum inhibitory concentration (MIC) testing were designed by Venatorx Pharmaceuticals and codon-optimized for use in E. coli and synthesized by Twist Bioscience as described previously ([9]). […] DH10B cells expressing an empty pET24a(+) vector (Novagen) were also grown, and the plasmid purified. Both pCR4-TOPO-PDC-88 and empty pET24a(+) were cut with BamHI and NdeI, the digests run on low-melting point agarose gels, and the bands of interest excised and ligated to yield a PDC-88 expressing pET24a(+) construct with the His tag removed. The PDC-3 expression construct was created in a similar manner but starting with a previously described pBC SK(−) vector ([42]). The final plasmids were grown in E. coli DH10B cells and purified.
(§2) Modal broth microdilution MICs (or median broth microdilution MICs where appropriate) were determined in accordance with Clinical and Laboratory Standards Institute (CLSI) M07 guidelines ([43]). Isogenic E. coli DH10B cells expressing the abovementioned plasmid-encoded PDC constructs were used. […] CLSI quality control strains Escherichia coli NCTC 13353, E. coli ATCC 35218, and Klebsiella pneumoniae ATCC 700603 were used during testing ([24]).

E. coli NCTC 13353 = assay: Broth microdilution MIC, CLSI quality control strain; assay type: cell-based; settings: Escherichia coli
Protocol: as §2

[2] = tested on: E. coli DH10B/pTU501 (vector); assay: Broth microdilution MIC, isogenic E. coli empty vector control; assay type: cell-based; settings: Escherichia coli
Protocol: as §1, §2

[3] = tested on: E. coli DH10B/pTU626 (PDC-89); assay: Broth microdilution MIC, isogenic E. coli expressing PDC-89; assay type: cell-based; settings: Escherichia coli
Protocol: as §1, §2

[4] = tested on: E. coli DH10B/pTU609 (PDC-3); assay: Broth microdilution MIC, isogenic E. coli expressing PDC-3; assay type: cell-based; settings: Escherichia coli
Protocol: as §1, §2

PDC-3 = biological target: T1, PDC-3 (Pseudomonas aeruginosa, UniProt P24735, T105A); assay: Timed ESI-MS of acyl-enzyme formation, PDC-3; assay type: biochemical; settings: timed ESI-MS, 1 to 30 min (ATM to 60 min)
T1 construct: The PDC-3 expression construct was created in a similar manner but starting with a previously described pBC SK(−) vector; made in house; host or cells: E. coli BL21-CodonPlus (DE3)-RP, pET24a(+)
Protocol: (§3) Timed ESI-MS experiments allow tracking of the reaction over time and determination of product modification, enabling the elucidation of mechanistic detail. Time courses were collected for both PDC-3 and PDC-88 with FEP (Fig. 4), CAZ (Fig. S1), TOL (Fig. S2), and ATM (Fig. S3). Substrate modification (here, loss of the R2 group) was determined based on differences between masses of apo and acyl-enzyme peaks (Fig. S4). […] Based on the differences in mass between the apo enzyme peaks, the acyl-enzyme peaks, and the molecular masses of each substrate, the mass of the adducts was determined and used to predict any portion of the substrate molecule that might be lost during the reaction (Fig. S4). As expected ([26][–][28]), all three cephalosporin antibiotics (FEP, CAZ, and TOL) lost their R2 groups during the reaction, while ATM (the sole monobactam) maintained its initial mass.
(§4) Five micrograms of PDC-3 or PDC-88 was incubated at the indicated molar ratio (1:2 to 1:100 PDC:β-lactam) in a total volume of 20 µL in 1× PBS at pH 7.4 at room temperature for the duration of the indicated time points. Reactions were quenched with the addition of 10 µL acetonitrile and added to 1 mL of 0.1% formic acid in water.
(§5) Data were collected using a Waters Synapt G2-Si quadrupole time-of-flight (Q-TOF) mass spectrometer and Waters Acquity UPLC BEH C18 1.7 µm column (2.1 by 100 mm). MassLynx V4.1 was used to deconvolute protein peaks. The tune settings for each sample were as follows: capillary voltage of 3.5 kV, sampling cone voltage of 35 V, source offset of 35 V, source temperature of 100°C, desolvation temperature of 500°C, cone gas flow rate of 100 L/h, desolvation gas flow rate of 800 L/h, and nebulizer bar at 6.0. Mobile phase A was 0.1% formic acid in water. Mobile phase B was 0.1% formic acid in acetonitrile. The mass accuracy of this system is ±5 Da.

PDC-88 [5] = biological target: T2, PDC-88 (Pseudomonas aeruginosa, UniProt P24735, DEL316-317/G27D/G391A/T105A/V205L/V356I); assay: Spectrophotometric β-lactam hydrolysis (progress curves, steady-state kinetics) by PDC-88; assay type: biochemical
T2 construct: NdeI 5′-[…]-3ʹ and BamHI 5ʹ-[…]-3ʹ; His tag removed) (N); made in house; host or cells: E. coli BL21-CodonPlus (DE3)-RP, pET24a(+)
Protocol: (§6) In order to determine the impact of the PDC-88 variant on hydrolysis, we determined hydrolysis progress curves for PDC-3, PDC-88, and a strongly hydrolyzing comparator (NDM-1 or PER-2) for cefepime (FEP, Fig. 3A), ceftazidime (CAZ, Fig. 3B), ceftolozane (TOL, Fig. 3C), and aztreonam (ATM, Fig. 3D).
(§7) β-Lactamase kinetic and inhibitor constants were determined using an Agilent 8453 UV-Visible Spectrophotometer to record progress curves and determine initial rates and other kinetic parameters as appropriate. Reactions were carried out in 1× phosphate-buffered saline (PBS) (pH 7.4) at room temperature in a 0.2 cm path-length quartz cuvette (Hellma Analytics). Reads were taken every 10 s to minimize UV-mediated background hydrolysis.
(§8) The extinction coefficients used were: nitrocefin, Δε482 = 17,400 M^−1 cm^−1, and cefepime, Δε260 = −10,000 M^−1 cm^−1.
(§9) The kinetic constants KM and Vmax were determined using a nonlinear least-squares regression of the data to the Henri-Michaelis-Menten equation (equation 1) in Origin Version 2020b (OriginLab, Northampton, MA), where v is the velocity of the reaction; Vmax is the theoretical maximum velocity; KM is the Michaelis constant; and [S] is the substrate concentration: […]

PDC-88 [6] = assay: as above; assay type: biochemical, Pseudomonas aeruginosa; settings: cefepime as substrate
Protocol: as §6, §7, §8, §9

PDC-88 [7] = biological target: T2, PDC-88; assay: Timed ESI-MS of acyl-enzyme formation, PDC-88; assay type: biochemical; settings: timed ESI-MS, 1 to 30 min (ATM to 60 min)
Protocol: as §3, §4, §5

[8] = FEP hydrolysis by PDC-88, 1× PBS pH 7.4, room temperature

CO/N=C(\C(=O)N[C@@H]1C(=O)N2C(C(=O)[O-])=C(C[N+]3(C)CCCC3)CS[C@H]12)c1csc(N)n1 [FEP, cefepime]
MIC ([1]; read-out: MIC FEP TZB): 2 µg/mL (≈ 4.16 µM)
MIC ([1]; E. coli DH10B/pTU606 (PDC-1), read-out: MIC FEP Alone): 2 µg/mL (≈ 4.16 µM)
MIC (E. coli NCTC 13353; NCTC13353, read-out: MIC FEP Alone): 64 µg/mL (≈ 133 µM)
MIC (E. coli NCTC 13353; NCTC13353, read-out: MIC FEP TAN): 0.12 µg/mL (≈ 0.25 µM)
MIC ([2]; read-out: MIC FEP AVI): 0.12 µg/mL (≈ 0.25 µM)
MIC ([2]; read-out: MIC FEP Alone): 0.12 µg/mL (≈ 0.25 µM)
MIC ([2]; read-out: MIC FEP TAN): 0.12 µg/mL (≈ 0.25 µM)
MIC ([2]; read-out: MIC FEP TZB): 0.12 µg/mL (≈ 0.25 µM)
MIC ([3]; read-out: MIC FEP AVI): 0.25 µg/mL (≈ 0.52 µM)
MIC ([3]; read-out: MIC FEP TZB): 16 µg/mL (≈ 33.3 µM)
MIC ([3]; E. coli DH10B/pTU626 (PDC-89), FEP with TAN at constant 4 µg/mL, read-out: MIC FEP TAN): 0.25 µg/mL (≈ 0.52 µM)
MIC ([3]; E. coli DH10B/pTU626 (PDC-89), read-out: MIC FEP Alone): 32 µg/mL (≈ 66.6 µM)
MIC ([4]; read-out: MIC FEP AVI): 0.25 µg/mL (≈ 0.52 µM)
MIC ([4]; read-out: MIC FEP TZB): 2 µg/mL (≈ 4.16 µM)
MIC ([4]; E. coli DH10B/pTU609 (PDC-3), FEP with TAN at constant 4 µg/mL, read-out: MIC FEP TAN): 0.25 µg/mL (≈ 0.52 µM)
MIC ([4]; E. coli DH10B/pTU609 (PDC-3), read-out: MIC FEP Alone): 2 µg/mL (≈ 4.16 µM)
acyl-enzyme complex formation and deacylation (PDC-3): did not form an acyl-enzyme complex
Km (PDC-88 [5]; [8]): 16 ± 1 µM
kcat (PDC-88 [5]; [8]): 0.16 ± 0.01 s⁻¹
hydrolysis progress curve (PDC-88 [5]; PDC-88, over 900 s, compared to PDC-3): increased hydrolysis
decrease of KM, PDC-88 compared to PDC-3 (PDC-88 [6]): 12.8 fold
decrease of kcat, PDC-88 compared to PDC-3 (PDC-88 [6]): 1.6 fold
higher catalytic efficiency (kcat/KM) of PDC-88 compared to PDC-3 (PDC-88 [6]): approximately 8.3 fold
higher catalytic efficiency (kcat/KM) of PDC-88 compared to PDC-3 (PDC-88 [6]; listed as cefepime): 8.3 fold
acyl-enzyme complex formation and deacylation (PDC-88 [7]): formed an acyl-enzyme complex with FEP, followed by relatively quick deacylation
